Consider 25 compounds from patent US9732094B2, “Arylquinazolines” (Merck Patent GmbH, priority 2013, dated 2017).

Like-named read-outs stand apart in the source and are kept apart here.

In one series the target is DNA-PK (Homo sapiens (Human), UniProt P78527). Description: DNA-PK assay (biochemical), flashplate 33P-ATP kinase assay. Summed up: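 Reactions ran in streptavidin-coated flashplates and were halted by 200 mM EDTA, with a further 30 min at room temperature before saline washing.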
In series [1] the target is DNA-PK phosphorylation at serine 2056 (Homo sapiens (Human), UniProt P78527). Put plainly: DNA-PK phosphorylation at serine 2056 (cellular), bleomycin-treated HCT116 cells, ELISA. It is filed as cell-based. Conditions: read-out: IC50 pDNA-PK. Summed up: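 HCT116, MEM alpha + 10% FCS, 37 °C/10% CO2, seeded o/n. Cpd + 10 μM bleomycin, 6 h. ELISA, chemiluminescence; phospho/total DNA-PKcs ratio, DMSO = blank.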

The next series concerns the target Kv11.1 (hERG) (Homo sapiens (Human), UniProt Q12809). Put plainly: Kv11.1 (hERG) ion channel activity (patch clamp assay), HEK293 cells transfected with hERG gene.
[2] abbreviates: read-out: Ki [Kv1.11 hERG], Table 5.
Setting [3] is: cellular DNA-PK phosphorylation at serine 2056, HCT116.
[4] abbreviates: Ki [Kv1.11 hERG], hERG patch clamp assay (cells without asterisk).
The mark [5] stands for this setting: cellular, HCT116 cells, 10 μM bleomycin, six hours.
[6] abbreviates: Ki [Kv1.11 hERG], patch clamp, HEK293 transfected with hERG gene.
Where [7] appears, read: read-out: Ki [Kv1.11 hERG], patch clamp, HEK293 transfected with hERG gene.
[8] abbreviates: read-out: Ki [Kv1.11 hERG], hERG patch clamp assay (cells without asterisk).

Kv11.1 (hERG), sequence (Q12809 whole entry): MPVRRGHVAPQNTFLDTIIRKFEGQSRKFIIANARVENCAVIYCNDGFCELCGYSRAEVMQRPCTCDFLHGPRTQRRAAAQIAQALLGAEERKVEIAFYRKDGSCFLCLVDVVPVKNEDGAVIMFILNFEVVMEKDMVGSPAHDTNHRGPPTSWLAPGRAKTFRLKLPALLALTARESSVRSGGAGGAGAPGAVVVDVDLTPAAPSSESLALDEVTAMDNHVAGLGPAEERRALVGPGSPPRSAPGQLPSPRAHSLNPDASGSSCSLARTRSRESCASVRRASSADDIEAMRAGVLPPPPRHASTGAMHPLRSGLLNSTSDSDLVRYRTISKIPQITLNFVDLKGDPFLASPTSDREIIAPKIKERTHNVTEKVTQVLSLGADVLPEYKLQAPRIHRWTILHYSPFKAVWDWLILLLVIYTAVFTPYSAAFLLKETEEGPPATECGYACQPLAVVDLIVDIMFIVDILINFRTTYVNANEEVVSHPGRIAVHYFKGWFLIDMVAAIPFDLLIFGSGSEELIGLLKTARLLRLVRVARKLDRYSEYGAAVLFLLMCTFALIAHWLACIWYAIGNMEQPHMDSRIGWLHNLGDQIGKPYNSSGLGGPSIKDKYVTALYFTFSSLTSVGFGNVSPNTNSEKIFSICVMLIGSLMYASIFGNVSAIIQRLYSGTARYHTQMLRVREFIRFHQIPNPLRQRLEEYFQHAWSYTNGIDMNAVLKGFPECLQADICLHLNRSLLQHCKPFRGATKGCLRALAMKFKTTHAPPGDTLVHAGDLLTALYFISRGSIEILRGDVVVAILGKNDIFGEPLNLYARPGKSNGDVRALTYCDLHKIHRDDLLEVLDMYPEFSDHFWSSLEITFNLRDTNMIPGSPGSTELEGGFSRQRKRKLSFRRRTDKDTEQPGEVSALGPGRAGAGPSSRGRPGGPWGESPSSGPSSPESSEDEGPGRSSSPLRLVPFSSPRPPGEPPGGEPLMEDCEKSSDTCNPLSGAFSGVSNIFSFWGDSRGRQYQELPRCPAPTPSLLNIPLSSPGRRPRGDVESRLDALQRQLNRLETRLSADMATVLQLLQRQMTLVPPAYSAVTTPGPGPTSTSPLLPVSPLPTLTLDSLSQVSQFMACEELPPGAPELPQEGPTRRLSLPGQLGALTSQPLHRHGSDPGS

Turning to `OC(c1cc(F)c(F)c(-c2ncnc3cc(N4CCOCC4)ccc23)c1)c1nccs1` (stereo not drawn) [Example 179, [3,4-Difluoro-5-(7-morpholin-4-yl-quinazolin-4-yl)-phenyl]thiazol-2-yl-methanol], the IC50 on DNA-PK (Table 5) lay within 3 to 7 nM; in series [1] (Table 5, HCT116 cells), 0.5 to 5 µM. For the same compound, the inhibition constant Ki on Kv11.1 (hERG) (setting [2]) is less than 10 µM.
Regarding `Cc1ncc(C(O)c2ccc(F)c(-c3ncnc4cc(N5CCOCC5)ccc34)c2)nc1C` (stereo not drawn) [Example 314, (5,6-Dimethyl-pyrazin-2-yl)-[4-fluoro-3-(7-morpholin-4-yl-quinazolin-4-yl)-phenyl]methanol], the results for the IC50 (on DNA-PK (biochemical DNA-PK assay); in series [1] (setting [3])) were 7 to 30 nM and 0.5 to 5 µM, respectively. At Kv11.1 (hERG) (setting [4]), the inhibition constant Ki lay in the range of 15 to 25 µM.
In the case of `COc1ccc(C(O)c2cc(-c3ncnc4cc(N5CCOCC5)ccc34)c(F)cc2F)nc1` (stereo not drawn) [Example 224, [2,4-Difluoro-5-(7-morpholin-4-yl-quinazolin-4-yl)-phenyl]-(5-methoxy-pyridin-2-yl)methanol], the IC50 against DNA-PK (Table 7) lay within 3 to 7 nM; in series [1] (Table 7, HCT116 cells) it was 0.5 to 5 µM. Moreover, the inhibition constant (Ki) at Kv11.1 (hERG) (Ki [Kv1.11 hERG], Table 7) was 15 to 25 µM.
`OC(c1ccn2nccc2n1)c1cc(-c2ncnc3cc(N4CCOCC4)ccc23)c(F)cc1Cl` (stereo not drawn) [Example 39, [2-Chloro-4-fluoro-5-(7-morpholin-4-yl-quinazolin-4-yl)phenyl]-pyrazolo[1,5-a]-pyrimidin-5-ylmethanol]: the IC50 is 3 to 7 nM against DNA-PK (enzymatic, 5 μM ATP) and less than 0.5 µM in series [1] (setting [5]). Moreover, the Ki on Kv11.1 (hERG) (setting [6]) was in the range of 15 to 25 µM.
`NC(=O)Cn1nc(C(O)c2cc(-c3ncnc4cc(N5CCOCC5)ccc34)c(F)cc2Cl)ccc1=O` (stereo not drawn) [Example 98, 2-{3-{[2-Chloro-4-fluoro-5-(7-morpholin-4-ylquinazolin-4-yl)-phenyl]hydroxymethyl}-6-oxo-6H-pyridazin-1-yl)acetamide]: the IC50 lay in the range of 3 to 7 nM at DNA-PK (enzymatic, 5 μM ATP) and 10 to 30 µM in series [1] (setting [5]). Further, on Kv11.1 (hERG) (setting [7]), the Ki was greater than 25 µM.
Take `Cc1ccc(C(O)c2ccc(F)c(-c3ncnc4cc(N5CCOCC5)ccc34)c2)nn1` (stereo not drawn) [Example 70, [4-Fluoro-3-(7-morpholin-4-yl-quinazolin-4-yl)phenyl]-(6-methylpyridazin-3-yl)methanol]: the concentration for half-maximal inhibition (IC50) was 3 to 7 nM against DNA-PK (enzymatic, 5 μM ATP) and 0.5 to 5 µM in series [1] (setting [5]). Moreover, the inhibition constant Ki at Kv11.1 (hERG) (setting [7]) was greater than 25 µM.
On to `COc1ccc(C(C(N)=O)c2cc(-c3ncnc4cc(N5CCOCC5)ccc34)c(F)cc2Cl)nn1` (stereo not drawn) [Example 325, 2-[2-Chloro-4-f1uoro-5-(7-morpholin-4-yl-quinazolin-4-yl)-phenyl]-2-(6-methoxypyridazin-3-yl)acetamide], for which the values for the IC50 (against DNA-PK (biochemical DNA-PK assay); in series [1] (setting [3])) were greater than 30 nM and 10 to 30 µM, respectively. Also, the Ki on Kv11.1 (hERG) (setting [4]) was 15 to 25 µM.
For `COCCOc1ccc(C(O)c2cc(-c3ncnc4cc(N5CCOCC5)ccc34)c(F)cc2Cl)nn1` (stereo not drawn) [Example 112, [2-Chloro-4-fluoro-5-(7-morpholin-4-yl-quinazolin-4-yl)-phenyl]-[6-(2-methoxyethoxy)-pyridazin-3-yl]-methanol], the IC50 is less than 3 nM against DNA-PK (enzymatic, 5 μM ATP) and 0.5 to 5 µM in series [1] (setting [5]). On Kv11.1 (hERG) (setting [6]), this compound registered an inhibition constant Ki of 15 to 25 µM.
With `CN(C)CCOc1ccc(C(O)c2ccc(F)c(-c3ncnc4cc(N5CCOCC5)ccc34)c2)nn1` (stereo not drawn) [Example 133, [6-(2-Dimethyl-amino-ethoxy)-pyridazin-3-yl]-[4-fluoro-3-(7-morpholin-4-yl-quinazolin-4-yl)-phenyl]methanol], the IC50 lay in the range of 7 to 30 nM at DNA-PK (enzymatic, 5 μM ATP) and 5 to 10 µM in series [1] (setting [5]). The Ki at Kv11.1 (hERG) (setting [7]) was greater than 25 µM.
For the compound `OC(c1ccc(F)c(-c2ncnc3cc(N4CCOCC4)ccc23)c1)c1ncccc1Cl` (stereo not drawn) [Example 465, (3-Chloro-pyridin-2-yl)-[4-fluoro-3-(7-morpholin-4-yl-quinazolin-4-yl)-phenyl]methanol], the 50% inhibitory concentration (IC50) against DNA-PK (biochemical DNA-PK assay) is less than 3 nM; in series [1] (setting [3]), less than 0.5 µM. Further, the inhibitory constant (Ki) at Kv11.1 (hERG) (setting [4]) lay within 15 to 25 µM.
As to `OC(c1cc(-c2ncnc3cc(N4CCOCC4)ccc23)c(F)cc1F)c1ncnc2ccsc12` (stereo not drawn) [Example 439, [2,4-Difluoro-5-(7-morpholin-4-yl-quinazolin-4-yl)-phenyl]thieno[3,2-d}-pyrimidin-4-yl-methanol], the IC50 at DNA-PK (biochemical DNA-PK assay) is less than 3 nM; in series [1] (setting [3]) it was less than 0.5 µM. This compound also came in with a Ki on Kv11.1 (hERG) (setting [4]) of 10 to 15 µM.
In the case of `COc1cc(C)c(C(O)c2cc(-c3ncnc4cc(N5CCOCC5)ccc34)c(F)cc2Cl)nn1` (stereo not drawn) [Example 109, [2-Chloro-4-fluoro-5-(7-morpholin-4-yl-quinazolin-4-yl)-phenyl]-(6-methoxy-4-methylpyridazin-3-yl)methanol], the IC50 on DNA-PK (enzymatic, 5 μM ATP) is greater than 30 nM; in series [1] (setting [5]), 5 to 10 µM. Besides, the inhibition constant (Ki) at Kv11.1 (hERG) (setting [7]) was greater than 25 µM.
With `OC(c1cccc(-c2ncnc3cc(N4CCOCC4)ccc23)c1)c1nccs1` (stereo not drawn) [Example 148, [3-(7-Morpholin-4-ylquinazolin-4-yl)-phenyl]thiazol-2-yl-methanol], the IC50 on DNA-PK (Table 5) is 7 to 30 nM; in series [1] (Table 5, HCT116 cells), 10 to 30 µM. Besides, the Ki on Kv11.1 (hERG) (Ki [Kv1.11 hERG], Table 5) was 10 to 15 µM.
As for `O=c1[nH]nc(C(O)c2ccc(F)c(-c3ncnc4cc(N5CCOCC5)ccc34)c2)c2ccsc12` (stereo not drawn) [Example 338, 4-[[4-Fluoro-3-(7-morpholino-quinazolin-4-yl)-phenyl]hydroxy-methyl]-6H-thieno[2,3-d}-pyridazin-7-one], the IC50 against DNA-PK (biochemical DNA-PK assay) was less than 3 nM; in series [1] (setting [3]), 0.5 to 5 µM. Moreover, the Ki on Kv11.1 (hERG) (setting [8]) was greater than 25 µM.
As to `COc1ccc(C(O)c2cc(-c3ncnc4cc(N5CCOCC5)cc(F)c34)c(F)cc2Cl)nn1` (single isomer, unassigned) [Example 271, [2-Chloro-4-fluoro-5-(5-fluoro-7-morpholin-4-yl-quinazolin-4-yl)-phenyl]-(6-methoxy-pyridazin-3-yl)-methanol], the results for the half-maximal inhibitory concentration (IC50) (against DNA-PK (biochemical DNA-PK assay); in series [1] (setting [3])) were less than 3 nM and less than 0.5 µM, respectively. Besides, the inhibition constant (Ki) on Kv11.1 (hERG) (setting [8]) was greater than 25 µM.
For the compound `Nc1nccnc1C(O)c1cc(-c2ncnc3cc(N4CCOCC4)ccc23)c(F)cc1Cl` (stereo not drawn) [Example 117, (3-Amino-pyrazin-2-yl)-[2-chloro-4-fluoro-5-(7-morpholin-4-yl-quinazolin-4-yl)-phenyl]methanol], the half-inhibitory concentration (IC50) is 3 to 7 nM at DNA-PK (enzymatic, 5 μM ATP) and 0.5 to 5 µM in series [1] (setting [5]). The Ki on Kv11.1 (hERG) (setting [6]) fell in the range of 15 to 25 µM.
For `OC(c1ccc(F)c(-c2ncnc3cc(N4CCOCC4)ccc23)c1)c1cncc(F)c1Cl` (stereo not drawn) [Example 2, (4-Chloro-5-fluoropyridin-3-yl)-[4-fluoro-3-(7-morpholin-4-ylquinazolin-4-yl)phenyl]methanol], the IC50 at DNA-PK (enzymatic, 5 μM ATP) is 3 to 7 nM; in series [1] (setting [5]), less than 0.5 µM. At Kv11.1 (hERG) (setting [6]), this compound came in with a Ki of 10 to 15 µM.
As for `Cc1nc(C(O)c2cnc(F)c(-c3ncnc4cc(N5CCOCC5)ncc34)c2)sc1C` (stereo not drawn) [Example 196, (4,5-Dimethyl-thiazol-2-yl)-[6-fluoro-5-(7-morpholin-4-yl-pyrido[4,3-d)-pyrimidin-4-yl)-pyridin-3-yl]-methanol], the 50% inhibitory concentration (IC50) lay within 7 to 30 nM at DNA-PK (Table 5) and 10 to 30 µM in series [1] (Table 5, HCT116 cells). For the same compound, on Kv11.1 (hERG) (setting [2]), the inhibition constant Ki was greater than 25 µM.
As to `Cc1nccnc1C(O)c1cc(-c2ncnc3cc(N4CCOCC4)ccc23)ccc1F` (stereo not drawn) [Example 393, [2-Fluoro-5-(7-morpholin-4-yl-quinazolin-4-yl)-phenyl]-(3-methyl-pyrazin-2-yl)-methanol], the half-maximal inhibitory concentration (IC50) was 3 to 7 nM at DNA-PK (biochemical DNA-PK assay) and 5 to 10 µM in series [1] (setting [3]). For the same compound, at Kv11.1 (hERG) (setting [4]), the inhibitory constant (Ki) lay in the range of 15 to 25 µM.
`CCOc1cnnc(C(O)c2ccc(F)c(-c3ncnc4cc(N5CCOCC5)ccc34)c2)c1` (stereo not drawn) [Example 79, (5-Ethoxypyridazin-3-yl)-[4-fluoro-3-(7-morpholin-4-yl-quinazolin-4-yl)phenyl]-methanol]: the half-inhibitory concentration (IC50) at DNA-PK (enzymatic, 5 μM ATP) was greater than 30 nM; in series [1] (setting [5]), 5 to 10 µM. Moreover, on Kv11.1 (hERG) (setting [6]), the Ki fell in the range of 15 to 25 µM.
Turning to `OC(c1cc(-c2ncnc3cc(N4CCOCC4)ccc23)ccc1Cl)c1nccn2ccnc12` (stereo not drawn) [Example 369, [2-Chloro-5-(7-morpholin-4-yl-quinazolin-4-yl)-phenyl]imidazo-[1,2-a]pyrazin-8-yl-methanol], the values for the IC50 (against DNA-PK (biochemical DNA-PK assay); in series [1] (setting [3])) were 7 to 30 nM and 5 to 10 µM, respectively. On Kv11.1 (hERG) (setting [4]), this compound yielded a Ki of 15 to 25 µM.
As for `COc1nccnc1C(C(N)=O)c1cc(-c2ncnc3cc(N4CCOCC4)cc(F)c23)c(F)cc1Cl` (stereo not drawn) [Example 261, 2-[2-Chloro-4-fluoro-5-(5-fluoro-7-morpholin-4-yl-quinazolin-4-yl)-phenyl]-2-(3-methoxy-pyrazin-2-yl)acetamide], the IC50 against DNA-PK (biochemical DNA-PK assay) lay within 7 to 30 nM; in series [1] (setting [3]), 0.5 to 5 µM. This compound also came in with a Ki at Kv11.1 (hERG) (setting [4]) of 15 to 25 µM.
As for `OC(c1cccnn1)c1cc(-c2ncnc3cc(N4CCOCC4)ccc23)ccc1Cl` (stereo not drawn) [Example 479, (2-Chloro-5-(7-morpholin-4-yl-quinazolin-4-yl)-phenyl]pyridazin-3-yl-methanol], the values for the half-inhibitory concentration (IC50) (against DNA-PK (biochemical DNA-PK assay); in series [1] (setting [3])) were 3 to 7 nM and less than 0.5 µM, respectively. At Kv11.1 (hERG) (setting [4]), this compound yielded an inhibitory constant (Ki) of 15 to 25 µM.
For the compound `Cn1c(C(O)c2cc(-c3ncnc4cc(N5CCOCC5)ccc34)c(F)cc2Cl)cccc1=O` (stereo not drawn) [Example 435, 6-{[2-Chloro-4-fluoro-5-(7-morpholin-4-yl-quinazolin-4-yl)-phenyl]hydroxy-methyl}-l-methyl-1H-pyridin-2-one], the IC50 at DNA-PK (biochemical DNA-PK assay) is 3 to 7 nM; in series [1] (setting [3]) it was less than 0.5 µM. Besides, at Kv11.1 (hERG) (setting [8]), the Ki is greater than 25 µM.
For `OC(c1ccc(F)c(-c2ncnc3cc(N4CCOCC4)ccc23)c1)c1nnc2ccccn12` (stereo not drawn) [Example 399, [4-Fluoro-3-(7-morpholin-4-yl-quinazolin-4-yl)-phenyl]-[1,2,4]-triazolo[4,3-a]pyridin-3-ylmethanol], in that order: less than 3 nM, 0.5 to 5 µM and greater than 25 µM.
